{"source": "paper PMC7101355", "about": "“Activation and self-inactivation mechanisms of the cyclic oligoadenylate-dependent CRISPR ribonuclease Csm6” (Nature Communications, 2020)", "molecules": {"B1": {"name": "Enterococcus italicus Csm6 (EiCsm6), wild type (enzyme)", "chain": "MKILFSPIGNTDPWRNDRDGAMLHIVRHYQPDRVVLFFTESIWQGNQHFSGQQAFDWVKIIQSINENCQIEIKCDTIEVENDFDAYKDLFHQYLVEEKRKYPNAEIFLNVTSGTPQMETTLCLEYVTYPDKMRCIQVSTPLKTSNAKTKYAQADCQEVDLEIVNEEESQQPSRCHKIAILSFREAIVRNQIKSLLDNYDYEAALQLVASQKSFRNGKEIRKKLKELIDDIKMHRVFSYLIKQYPRNEKLQKALLHTILLEMRHQRGDIAETLIRVKSIAEYIVEQYIQKNYPYLIIYKEDKPYFNVSYSQELTESYLALMDSRNKKTNKKMTVDSLDRILGFPAYRDFLQLLEASNEMTNEMNKVNEINNLRNKVAHNLDSLNLDRDKNGRKITNAVTAVRTMLLAVFPEVQENDFHYLKQFNQSIKELL", "notes": "Csm6 ribonuclease (CARF and HEPN domains) of the type III CRISPR-Cas system of Enterococcus italicus DSM-15952; gene amplified from genomic DNA; Cloned into the 1B vector (Addgene 29653): N-terminal hexahistidine tag followed by a TEV site, removed with TEV protease; Crystallised with the small-molecule ligand cFA6 (PDB 6TUG) or with cA6; also called WT EiCsm6; source: E. coli BL21 Star (DE3), …"}}, "key": {"EiCsm6 [1]": {"target": "T1, EiCsm6 (Enterococcus italicus, UniProt E6LHV2)", "T1 construct": "gene csm6; recombinant from E. coli BL21 Star (DE3); N-terminal His6-TEV tag cut; full gene; homodimer, ligand site at the CARF domain interface", "T1 sequence (E6LHV2 1-430)": "B1 chain", "assay": "X-ray crystal structure of the complex, […] Å", "assay_type": "binding", "conditions": "bound at the CARF domain dimer interface, one cFA6 per homodimer"}, "EiCsm6 [2]": {"target": "T1, EiCsm6", "assay": "fluorogenic RNaseAlert ribonuclease assay, initial velocities, variable Hill fit", "assay_type": "biochemical", "conditions": "5 nM EiCsm6, 10 mM HEPES pH 7.5, 50 mM KCl; allosteric activator at CARF domain, read-out HEPN RNase"}, "EiCsm6 [3]": {"target": "T1, EiCsm6", "assay": "LC-MS degradation assay; RNaseAlert activation assay", "assay_type": "biochemical", "conditions": "25 uM cA6 and 25 uM protein, 37 °C, 1 h; also allosteric activator at CARF domain"}, "[4]": {"target": "the molecule itself", "assay": "crystal structure; EiCsm6 (120 uM) co-crystallised with the cA6 mimic cFA6 (288 uM); 100 mM HEPES pH 7.5, 1.6 M ammonium sulfate, 25 mM lithium perchlorate; space group P1, four homodimers in the asymmetric unit; 2.4 A"}}, "data": [{"molecule": "Nc1ncnc2c1ncn2[C@@H]1O[C@@H]2COP(=O)(O)O[C@H]3[C@@H](F)[C@H](n4cnc5c(N)ncnc54)O[C@@H]3COP(=O)(O)O[C@H]3[C@@H](F)[C@H](n4cnc5c(N)ncnc54)O[C@@H]3COP(=O)(O)O[C@H]3[C@@H](F)[C@H](n4cnc5c(N)ncnc54)O[C@@H]3COP(=O)(O)O[C@H]3[C@@H](F)[C@H](n4cnc5c(N)ncnc54)O[C@@H]3COP(=O)(O)O[C@H]3[C@@H](F)[C@H](n4cnc5c(N)ncnc54)O[C@@H]3COP(=O)(O)O[C@H]2[C@H]1F", "note": "[cFA6, 2’-,2’’-,2’’’,2’’’’,2’’’’’,2’’’’’’-hexadeoxy-2’-,2’’,2’’’,2’’’’,2’’’’’,2’’’’’’-hexafluoro-cyclic hexaadenosine monophosphate]", "values": [{"measurement": "X-ray crystal structure of the complex, 2.4 Å", "setting": "EiCsm6 [1]", "result": "we co-crystallized EiCsm6 with cFA6 and determined the structure of the complex"}, {"measurement": "EC50", "setting": "EiCsm6 [2]", "result": 170, "unit": "nM"}]}, {"molecule": "Nc1ncnc2c1ncn2[C@@H]1O[C@@H]2COP(=O)(O)O[C@H]3[C@@H](O)[C@H](n4cnc5c(N)ncnc54)O[C@@H]3COP(=O)(O)O[C@H]3[C@@H](O)[C@H](n4cnc5c(N)ncnc54)O[C@@H]3COP(=O)(O)O[C@H]3[C@@H](O)[C@H](n4cnc5c(N)ncnc54)O[C@@H]3COP(=O)(O)O[C@H]3[C@@H](O)[C@H](n4cnc5c(N)ncnc54)O[C@@H]3COP(=O)(O)O[C@H]3[C@@H](O)[C@H](n4cnc5c(N)ncnc54)O[C@@H]3COP(=O)(O)O[C@H]2[C@H]1O", "note": "[cA6]", "values": [{"measurement": "LC-MS degradation assay; RNaseAlert activation assay", "setting": "EiCsm6 [3]", "result": "revealing that cA6 was efficiently degraded to yield a mixture of products"}]}, {"molecule": "B1", "values": [{"measurement": "stoichiometry N", "setting": "[4]", "result": 2}]}]}
